Measurements reported in PubChem BioAssay (NCI).
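Five compound concentrations were applied to cells in 96-well plates for 48 hours; endpoints were derived by simple linear interpolation of the resulting dose-response curve. GI50 marks 50% less growth. The concentration for full growth arrest is given as TGI.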

Tests used:
Assay in all cases: inhibition of tumour cell growth, NCI panel, 48 h
M14 melanoma = test system: M14 melanoma
OVCAR-4 ovarian = test system: OVCAR-4 ovarian
MDA-MB-435 = test system: MDA-MB-435
HCT-15 colon = test system: HCT-15 colon
SNB-19 CNS = test system: SNB-19 CNS
COLO 205 colon = test system: COLO 205 colon
MDA-MB-231 breast = test system: MDA-MB-231 breast
NCI-H226 lung = test system: NCI-H226 lung
HCT-116 colon = test system: HCT-116 colon
UACC-257 melanoma = test system: UACC-257 melanoma
SF-539 CNS = test system: SF-539 CNS
DU-145 prostate = test system: DU-145 prostate
K-562 leukemia = test system: K-562 leukemia
SN12C renal = test system: SN12C renal
OVCAR-8 ovarian = test system: OVCAR-8 ovarian
MALME-3M melanoma = test system: MALME-3M melanoma
T-47D breast = test system: T-47D breast
HCC-2998 colon = test system: HCC-2998 colon
EKVX NSCLC = test system: EKVX NSCLC
PC-3 prostate = test system: PC-3 prostate
NCI/ADR-RES ovarian = test system: NCI/ADR-RES ovarian
RXF 393 renal = test system: RXF 393 renal
HOP-62 NSCLC = test system: HOP-62 NSCLC
IGROV1 ovarian = test system: IGROV1 ovarian
U251 CNS = test system: U251 CNS
NCI-H522 lung = test system: NCI-H522 lung
SNB-75 CNS = test system: SNB-75 CNS
UO-31 renal = test system: UO-31 renal
MOLT-4 leukemia = test system: MOLT-4 leukemia
KM12 colon = test system: KM12 colon
SR leukemia = test system: SR leukemia
HL-60(TB) leukemia = test system: HL-60(TB) leukemia
ACHN renal = test system: ACHN renal
CCRF-CEM leukemia = test system: CCRF-CEM leukemia
NCI-H23 lung = test system: NCI-H23 lung
HT29 colon = test system: HT29 colon
786-0 renal = test system: 786-0 renal
HS 578T breast = test system: HS 578T breast
A498 renal = test system: A498 renal
UACC-62 melanoma = test system: UACC-62 melanoma
SF-268 CNS = test system: SF-268 CNS
SW-620 colon = test system: SW-620 colon
SK-MEL-5 melanoma = test system: SK-MEL-5 melanoma
OVCAR-5 ovarian = test system: OVCAR-5 ovarian
LOX IMVI melanoma = test system: LOX IMVI melanoma
MCF7 breast = test system: MCF7 breast
HOP-92 NSCLC = test system: HOP-92 NSCLC
RPMI-8226 leukemia = test system: RPMI-8226 leukemia
SK-MEL-28 melanoma = test system: SK-MEL-28 melanoma
SF-295 CNS = test system: SF-295 CNS
SK-MEL-2 melanoma = test system: SK-MEL-2 melanoma
OVCAR-3 ovarian = test system: OVCAR-3 ovarian
TK-10 renal = test system: TK-10 renal
A549 NSCLC = test system: A549 NSCLC
NCI-H460 lung = test system: NCI-H460 lung
SK-OV-3 ovarian = test system: SK-OV-3 ovarian
BT-549 breast = test system: BT-549 breast
CAKI-1 renal = test system: CAKI-1 renal

## O=c1oc2ccc(Br)cc2c(=O)n1-c1ccc(Cl)cc1F
M14 melanoma
  GI50: 925 nM
  TGI: 6240 nM
OVCAR-4 ovarian
  GI50: 887 nM
  TGI: 28100 nM
MDA-MB-435
  GI50: 1350 nM
  TGI: 6230 nM
HCT-15 colon
  GI50: 1700 nM
  TGI: 9520 nM
SNB-19 CNS
  GI50: 506 nM
  TGI: > 100000 nM
COLO 205 colon
  GI50: 2990 nM
  TGI: 9930 nM
MDA-MB-231 breast
  GI50: 897 nM
  TGI: 5990 nM
NCI-H226 lung
  GI50: 1430 nM
  TGI: 5110 nM
HCT-116 colon
  GI50: 1140 nM
  TGI: 4330 nM
UACC-257 melanoma
  GI50: 915 nM
  TGI: 5590 nM
SF-539 CNS
  GI50: 854 nM
  TGI: 6400 nM
DU-145 prostate
  GI50: 1860 nM
  TGI: 21300 nM
K-562 leukemia
  GI50: 646 nM
  TGI: > 100000 nM
SN12C renal
  GI50: 820 nM
  TGI: 5160 nM
OVCAR-8 ovarian
  GI50: 1700 nM
  TGI: > 26200 nM
MALME-3M melanoma
  GI50: 664 nM
  TGI: 3320 nM
T-47D breast
  GI50: 597 nM
  TGI: 5650 nM
HCC-2998 colon
  GI50: 2680 nM
  TGI: 9530 nM
EKVX NSCLC
  GI50: 1450 nM
  TGI: 7810 nM
PC-3 prostate
  GI50: 1870 nM
  TGI: 7810 nM
NCI/ADR-RES ovarian
  GI50: 1410 nM
  TGI: 6950 nM
RXF 393 renal
  GI50: 1050 nM
  TGI: 4470 nM
HOP-62 NSCLC
  GI50: 2170 nM
  TGI: 9130 nM
IGROV1 ovarian
  GI50: 610 nM
  TGI: 17200 nM
U251 CNS
  GI50: 1260 nM
  TGI: > 39200 nM
NCI-H522 lung
  GI50: 586 nM
  TGI: 7690 nM
SNB-75 CNS
  GI50: 572 nM
  TGI: 2800 nM
UO-31 renal
  GI50: 349 nM
  TGI: 3030 nM
MOLT-4 leukemia
  GI50: 1700 nM
  TGI: 5220 nM
KM12 colon
  GI50: 2030 nM
  TGI: 4870 nM
SR leukemia
  GI50: 798 nM
  TGI: > 100000 nM
HL-60(TB) leukemia
  GI50: 1120 nM
  TGI: 4960 nM
ACHN renal
  GI50: 1220 nM
  TGI: 12900 nM
CCRF-CEM leukemia
  GI50: 2380 nM
  TGI: 11700 nM
NCI-H23 lung
  GI50: 1030 nM
  TGI: 4770 nM
HT29 colon
  GI50: 3350 nM
  TGI: > 34000 nM
786-0 renal
  GI50: 2380 nM
  TGI: 7110 nM
HS 578T breast
  GI50: 553 nM
  TGI: 5690 nM
A498 renal
  GI50: 194 nM
  TGI: 772 nM
UACC-62 melanoma
  GI50: 330 nM
  TGI: 1410 nM
SF-268 CNS
  GI50: 917 nM
  TGI: 9230 nM
SW-620 colon
  GI50: 1840 nM
  TGI: 11200 nM
SK-MEL-5 melanoma
  GI50: 323 nM
  TGI: 1080 nM
OVCAR-5 ovarian
  GI50: 3840 nM
  TGI: > 100000 nM
LOX IMVI melanoma
  GI50: 827 nM
  TGI: 4540 nM
MCF7 breast
  GI50: 1660 nM
  TGI: 10100 nM
HOP-92 NSCLC
  GI50: 179 nM
  TGI: 618 nM
RPMI-8226 leukemia
  GI50: 446 nM
  TGI: 2970 nM
SK-MEL-28 melanoma
  GI50: 522 nM
  TGI: 3030 nM
SF-295 CNS
  GI50: 1780 nM
  TGI: 3540 nM
SK-MEL-2 melanoma
  GI50: 690 nM
  TGI: 4500 nM
OVCAR-3 ovarian
  GI50: 641 nM
  TGI: 8850 nM
TK-10 renal
  GI50: 4190 nM
  TGI: 18900 nM
A549 NSCLC
  GI50: 2900 nM
  TGI: > 94800 nM
NCI-H460 lung
  GI50: 739 nM
  TGI: 10700 nM
SK-OV-3 ovarian
  GI50: 672 nM
  TGI: 4480 nM
BT-549 breast
  GI50: 480 nM
  TGI: 2490 nM
CAKI-1 renal
  GI50: 821 nM
  TGI: 4370 nM
